{
  "source": "PubChem BioAssay (NCI)",
  "assay_in_all_cases": "inhibition of tumour cell growth, NCI panel, 48 h",
  "key": {"[1]": {"tested_on": "MALME-3M melanoma"}, "[2]": {"tested_on": "OVCAR-3 ovarian"}, "[3]": {"tested_on": "EKVX NSCLC"}, "[4]": {"tested_on": "LOX IMVI melanoma"}, "[5]": {"tested_on": "SK-MEL-2 melanoma"}, "[6]": {"tested_on": "OVCAR-4 ovarian"}, "[7]": {"tested_on": "M14 melanoma"}, "[8]": {"tested_on": "HOP-62 NSCLC"}, "[9]": {"tested_on": "HCT-15 colon"}, "[10]": {"tested_on": "SK-MEL-5 melanoma"}, "[11]": {"tested_on": "NCI-H460 lung"}, "[12]": {"tested_on": "RPMI-8226 leukemia"}, "[13]": {"tested_on": "DMS 114 small cell lung"}, "[14]": {"tested_on": "HOP-18 NSCLC"}, "[15]": {"tested_on": "SF-295 CNS"}, "[16]": {"tested_on": "786-0 renal"}, "[17]": {"tested_on": "UO-31 renal"}, "[18]": {"tested_on": "DMS 273 small cell lung"}, "[19]": {"tested_on": "KM12 colon"}, "[20]": {"tested_on": "LXFL 529 NSCLC"}, "[21]": {"tested_on": "OVCAR-5 ovarian"}, "[22]": {"tested_on": "DLD-1 colon"}, "[23]": {"tested_on": "COLO 205 colon"}, "[24]": {"tested_on": "A549 NSCLC"}, "[25]": {"tested_on": "SK-MEL-28 melanoma"}, "[26]": {"tested_on": "MOLT-4 leukemia"}, "[27]": {"tested_on": "SNB-78 CNS"}, "[28]": {"tested_on": "U251 CNS"}, "[29]": {"tested_on": "K-562 leukemia"}, "[30]": {"tested_on": "CCRF-CEM leukemia"}, "[31]": {"tested_on": "OVCAR-8 ovarian"}, "[32]": {"tested_on": "M19-MEL melanoma"}, "[33]": {"tested_on": "CAKI-1 renal"}, "[34]": {"tested_on": "RXF 393 renal"}, "[35]": {"tested_on": "HT29 colon"}, "[36]": {"tested_on": "RXF-631 renal"}, "[37]": {"tested_on": "UACC-257 melanoma"}, "[38]": {"tested_on": "NCI-H23 lung"}, "[39]": {"tested_on": "SR leukemia"}, "[40]": {"tested_on": "NCI-H226 lung"}, "[41]": {"tested_on": "NCI-H522 lung"}, "[42]": {"tested_on": "ACHN renal"}, "[43]": {"tested_on": "HOP-92 NSCLC"}, "[44]": {"tested_on": "HCT-116 colon"}, "[45]": {"tested_on": "SNB-75 CNS"}, "[46]": {"tested_on": "SK-OV-3 ovarian"}, "[47]": {"tested_on": "KM20L2 colon"}, "[48]": {"tested_on": "A498 renal"}, "[49]": {"tested_on": "HCC-2998 colon"}, "[50]": {"tested_on": "SF-268 CNS"}, "[51]": {"tested_on": "TK-10 renal"}, "[52]": {"tested_on": "SNB-19 CNS"}, "[53]": {"tested_on": "IGROV1 ovarian"}, "[54]": {"tested_on": "SW-620 colon"}, "[55]": {"tested_on": "SN12C renal"}, "[56]": {"tested_on": "UACC-62 melanoma"}},
  "note": "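Interpolation was linear, between the two tested concentrations surrounding the appropriate level; five concentrations were tested over 48 hours in 96-well plates. At the TGI there is no net growth.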",
  "data": [
    {"smiles": "CN(C)Cc1cc(/C(=C(\\C#N)c2ccccc2)c2ccc(O)cc2)ccc1O", "values": [
      {"measurement": "TGI", "setting": "[1]", "value": 29.8, "unit": "µM"},
      {"measurement": "TGI", "setting": "[2]", "value": 50.3, "unit": "µM"},
      {"measurement": "TGI", "setting": "[3]", "value": "> 100", "unit": "µM"},
      {"measurement": "TGI", "setting": "[4]", "value": 26.8, "unit": "µM"},
      {"measurement": "TGI", "setting": "[5]", "value": 33.9, "unit": "µM"},
      {"measurement": "TGI", "setting": "[6]", "value": 70.5, "unit": "µM"},
      {"measurement": "TGI", "setting": "[7]", "value": 23.1, "unit": "µM"},
      {"measurement": "TGI", "setting": "[8]", "value": 33.9, "unit": "µM"},
      {"measurement": "TGI", "setting": "[9]", "value": 96.5, "unit": "µM"},
      {"measurement": "TGI", "setting": "[10]", "value": 28.9, "unit": "µM"},
      {"measurement": "TGI", "setting": "[11]", "value": 48.9, "unit": "µM"},
      {"measurement": "TGI", "setting": "[12]", "value": 46.4, "unit": "µM"},
      {"measurement": "TGI", "setting": "[13]", "value": 29.4, "unit": "µM"},
      {"measurement": "TGI", "setting": "[14]", "value": 66.5, "unit": "µM"},
      {"measurement": "TGI", "setting": "[15]", "value": 49.7, "unit": "µM"},
      {"measurement": "TGI", "setting": "[16]", "value": 35.6, "unit": "µM"},
      {"measurement": "TGI", "setting": "[17]", "value": 60.2, "unit": "µM"},
      {"measurement": "TGI", "setting": "[18]", "value": 36.4, "unit": "µM"},
      {"measurement": "TGI", "setting": "[19]", "value": 61, "unit": "µM"},
      {"measurement": "TGI", "setting": "[20]", "value": 34.7, "unit": "µM"},
      {"measurement": "TGI", "setting": "[21]", "value": 72.4, "unit": "µM"},
      {"measurement": "TGI", "setting": "[22]", "value": 86.1, "unit": "µM"},
      {"measurement": "TGI", "setting": "[23]", "value": 31.9, "unit": "µM"},
      {"measurement": "TGI", "setting": "[24]", "value": "> 100", "unit": "µM"},
      {"measurement": "TGI", "setting": "[25]", "value": 26.8, "unit": "µM"},
      {"measurement": "TGI", "setting": "[26]", "value": 39.3, "unit": "µM"},
      {"measurement": "TGI", "setting": "[27]", "value": 94.9, "unit": "µM"},
      {"measurement": "TGI", "setting": "[28]", "value": 50.1, "unit": "µM"},
      {"measurement": "TGI", "setting": "[29]", "value": 40.4, "unit": "µM"},
      {"measurement": "TGI", "setting": "[30]", "value": 45.5, "unit": "µM"},
      {"measurement": "TGI", "setting": "[31]", "value": 48.5, "unit": "µM"},
      {"measurement": "TGI", "setting": "[32]", "value": 31.2, "unit": "µM"},
      {"measurement": "TGI", "setting": "[33]", "value": 85.5, "unit": "µM"},
      {"measurement": "TGI", "setting": "[34]", "value": 14, "unit": "µM"},
      {"measurement": "TGI", "setting": "[35]", "value": 44.8, "unit": "µM"},
      {"measurement": "TGI", "setting": "[36]", "value": 37.2, "unit": "µM"},
      {"measurement": "TGI", "setting": "[37]", "value": 29.9, "unit": "µM"},
      {"measurement": "TGI", "setting": "[38]", "value": 52.5, "unit": "µM"},
      {"measurement": "TGI", "setting": "[39]", "value": 31.8, "unit": "µM"},
      {"measurement": "TGI", "setting": "[40]", "value": 56.9, "unit": "µM"},
      {"measurement": "TGI", "setting": "[41]", "value": 26.1, "unit": "µM"},
      {"measurement": "TGI", "setting": "[42]", "value": 32.4, "unit": "µM"},
      {"measurement": "TGI", "setting": "[43]", "value": 52.4, "unit": "µM"},
      {"measurement": "TGI", "setting": "[44]", "value": 25.2, "unit": "µM"},
      {"measurement": "TGI", "setting": "[45]", "value": 63.6, "unit": "µM"},
      {"measurement": "TGI", "setting": "[46]", "value": 87.5, "unit": "µM"},
      {"measurement": "TGI", "setting": "[47]", "value": "> 100", "unit": "µM"},
      {"measurement": "TGI", "setting": "[48]", "value": "> 100", "unit": "µM"},
      {"measurement": "TGI", "setting": "[49]", "value": 32.4, "unit": "µM"},
      {"measurement": "TGI", "setting": "[50]", "value": 60.3, "unit": "µM"},
      {"measurement": "TGI", "setting": "[51]", "value": 79.4, "unit": "µM"},
      {"measurement": "TGI", "setting": "[52]", "value": "> 100", "unit": "µM"},
      {"measurement": "TGI", "setting": "[53]", "value": 99.5, "unit": "µM"},
      {"measurement": "TGI", "setting": "[54]", "value": 73.7, "unit": "µM"},
      {"measurement": "TGI", "setting": "[55]", "value": 59.6, "unit": "µM"},
      {"measurement": "TGI", "setting": "[56]", "value": 33.4, "unit": "µM"}
    ]}
  ]
}
